Results published in US20190083679A1, “Amorphous Inorganic Polyphosphate-Calcium-Phosphate And Carbonate Particles As Morphogenetically Active Coatings and Scaffolds” (NanotecMARIN GmbH, priority 2014, published 2019).

Assays:
[1] = test system: alkaline phosphatase (ALP); settings: normalized to GAPDH, 100 μM gallium nitrate
Protocol: The expression values were normalized to the expression of GAPDH. […] The cultures were incubated at first in the absence of the MAC for 3 d; then they were transferred to medium, supplemented with the MAC, and the incubation was continue for additional 3 or 5 d, as outlined. Then the cells were harvested, RNA was extracted and subjected to qRT-PCR for determination of both CA IX and ALP transcripts; the expression of GAPDH served as reference. Data are expressed as mean values±SD for five independent experiments; each experiment was carried out in duplicate (* P<0.01). nd, not detectable.
In parallel, the expression of the gene for the enzyme ALP was determined, likewise by qRT-PCR.
Bone cell like SaOS-2 cells (human osteogenic sarcoma cells) are cultured in McCoy's medium (Biochrom-Seromed), supplemented with 2 mM L-glutamine, 10% or 15% heat-inactivated fetal calf serum (FCS), and 100 units/ml penicillin and 100 μg/ml streptomycin. The cells are incubated in 25-cm^2 flasks or in 6-well plates (surface area 9.46 cm^2; e.g. from Orange Scientifique) in a humidified incubator at 37° C. […]
The quantitative real-time RT [reverse transcription]-PCR (qRT-PCR) technique is applied to determine the effect of the discs on the expression levels of the following genes in SaOS-2 cells. […] After determinations of the Ct values the expression of the respective transcripts are calculated.

[2] = test system: carbonic anhydrase IX (CA IX); test: CA IX gene expression in SaOS-2 cells on discs (qRT-PCR); format: cell-based, human; settings: normalized to GAPDH, 100 μM gallium nitrate
Protocol: As a marker for the functional activity of the SaOS-2 cells, growing onto titanium discs, the expression of the two genes encoding for the enzymes carbonic anhydrase IX (CA IX) and alkaline phosphatase (ALP) was determined by quantitative qRT-PCR.
(SEQ ID NO: 8). […] (SEQ ID NO. 10).

SMILES: O=[N+]([O-])[O-].O=[N+]([O-])[O-].O=[N+]([O-])[O-].[Ga+3] [gallium nitrate]
- ALP expression, with Ga, −MAC 0 d [1]: 0.027 ± 0.004
- ALP expression, with Ga, +MAC 5 d ([1]; 3 d −MAC then 5 d +MAC): 0.111 ± 0.010
- CA IX expression, with Ga, −MAC 0 d [2]: 0.24±0.05
- CA IX expression, with Ga, +MAC 5 d ([2]; 3 d −MAC then 5 d +MAC): 0.89±0.11
